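Where inhibition never reached the appropriate level, the endpoint shown equals the highest concentration tested. Otherwise, values were interpolated linearly from a five-concentration, 48-hour dose response in 96-well plates. TGI is the concentration that stops growth completely.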
Columns and labels:
Test in all cases: inhibition of tumour cell growth, NCI panel, 48 h
[1] = system: 786-0 renal
[2] = system: A498 renal
[3] = system: A549 NSCLC
[4] = system: ACHN renal
[5] = system: CAKI-1 renal
[6] = system: CCRF-CEM leukemia
[7] = system: COLO 205 colon
[8] = system: DLD-1 colon
[9] = system: DMS 114 small cell lung
[10] = system: DMS 273 small cell lung
[11] = system: EKVX NSCLC
[12] = system: HCC-2998 colon
[13] = system: HCT-116 colon
[14] = system: HCT-15 colon
[15] = system: HL-60(TB) leukemia
[16] = system: HOP-18 NSCLC
[17] = system: HOP-62 NSCLC
[18] = system: HOP-92 NSCLC
[19] = system: HT29 colon
[20] = system: IGROV1 ovarian
[21] = system: K-562 leukemia
[22] = system: KM12 colon
[23] = system: KM20L2 colon
[24] = system: LOX IMVI melanoma
[25] = system: LXFL 529 NSCLC
[26] = system: M14 melanoma
[27] = system: M19-MEL melanoma
[28] = system: MALME-3M melanoma
[29] = system: MOLT-4 leukemia
[30] = system: NCI-H226 lung
[31] = system: NCI-H23 lung
[32] = system: NCI-H460 lung
[33] = system: NCI-H522 lung
[34] = system: OVCAR-3 ovarian
[35] = system: OVCAR-4 ovarian
[36] = system: OVCAR-5 ovarian
[37] = system: OVCAR-8 ovarian
[38] = system: RXF 393 renal
[39] = system: SF-268 CNS
[40] = system: SF-295 CNS
[41] = system: SF-539 CNS
[42] = system: SK-MEL-2 melanoma
[43] = system: SK-MEL-28 melanoma
[44] = system: SK-MEL-5 melanoma
[45] = system: SK-OV-3 ovarian
[46] = system: SN12C renal
[47] = system: SNB-19 CNS
[48] = system: SNB-75 CNS
[49] = system: SNB-78 CNS
[50] = system: SW-620 colon
[51] = system: TK-10 renal
[52] = system: U251 CNS
[53] = system: UACC-257 melanoma
[54] = system: UACC-62 melanoma
[55] = system: UO-31 renal
[56] = system: XF 498 CNS
[57] = system: RPMI-8226 leukemia
[58] = system: SR leukemia

`CN(C)CCOc1cccc2c1C(=O)c1ccccc1C2=O` gave a TGI [1] of 52 µM, a TGI [2] of 33.3 µM and a TGI [3] of 45.4 µM. For the same compound, the TGI [4] was over 100 µM, the TGI [5] was 43.8 µM and the TGI [6] was 64.9 µM. It also gave a TGI [7] of 16.1 µM, a TGI [8] of 34.5 µM and a TGI [9] of 22.6 µM. It also gave a TGI [10] of 21.7 µM, a TGI [11] of 34.6 µM and a TGI [12] of 30.3 µM. The TGI [13] was 17.2 µM, the TGI [14] was 27.3 µM and the TGI [15] was 29.4 µM. The TGI [16] was 46.9 µM, the TGI [17] was 30.9 µM and the TGI [18] was 29 µM. The TGI [19] was 28.7 µM, the TGI [20] was 43.4 µM and the TGI [21] was 33.7 µM. For the same compound, the TGI [22] was 26.2 µM, the TGI [23] was 46.8 µM and the TGI [24] was 18.6 µM. The TGI [25] was 43.6 µM, the TGI [26] was 26.3 µM and the TGI [27] was 17.9 µM. It also gave a TGI [28] of 26.5 µM, a TGI [29] of 21.5 µM and a TGI [30] of 22.2 µM. For the same compound, the TGI [31] was 24 µM, the TGI [32] was 19.2 µM and the TGI [33] was 20.5 µM. It also gave a TGI [34] of 64 µM, a TGI [35] of 20.4 µM and a TGI [36] of 40.8 µM. The TGI [37] was 56 µM, the TGI [38] was 27.3 µM and the TGI [39] was 27.3 µM. For the same compound, the TGI [40] was 29.3 µM, the TGI [41] was 22.6 µM and the TGI [42] was 31.4 µM. For the same compound, the TGI [43] was 28.6 µM, the TGI [44] was 25.3 µM and the TGI [45] was 81.2 µM. It also gave a TGI [46] of 37.3 µM, a TGI [47] of 66.3 µM and a TGI [48] of 28.8 µM. The TGI [49] was 38.2 µM, the TGI [50] was 43.7 µM and the TGI [51] was 66.6 µM. For the same compound, the TGI [52] was 72.5 µM, the TGI [53] was 25.8 µM and the TGI [54] was 29.8 µM. It also gave a TGI [55] of 45.2 µM and a TGI [56] of 33 µM.
`CCNC(C)Cc1ccccc1` (centres undefined) was tested, and the TGI [1] was over 100 µM, the TGI [2] was over 100 µM and the TGI [3] was over 100 µM. It also gave a TGI [4] of over 100 µM, a TGI [5] of over 100 µM and a TGI [6] of over 100 µM. It also gave a TGI [7] of over 100 µM, a TGI [8] of over 100 µM and a TGI [9] of over 100 µM. For the same compound, the TGI [10] was over 100 µM, the TGI [11] was over 100 µM and the TGI [12] was over 100 µM. For the same compound, the TGI [13] was over 100 µM, the TGI [14] was over 100 µM and the TGI [15] was over 100 µM. For the same compound, the TGI [16] was over 100 µM, the TGI [17] was over 100 µM and the TGI [18] was over 100 µM. It also gave a TGI [19] of over 100 µM, a TGI [20] of over 100 µM and a TGI [21] of over 100 µM. For the same compound, the TGI [22] was over 100 µM, the TGI [23] was over 100 µM and the TGI [24] was over 100 µM. The TGI [25] was over 100 µM, the TGI [26] was over 100 µM and the TGI [28] was over 100 µM. For the same compound, the TGI [30] was over 100 µM, the TGI [31] was over 100 µM and the TGI [32] was over 100 µM. The TGI [33] was over 100 µM, the TGI [34] was over 100 µM and the TGI [35] was over 100 µM. It also gave a TGI [36] of over 100 µM, a TGI [37] of over 100 µM and a TGI [57] of over 100 µM. It also gave a TGI [38] of over 100 µM, a TGI [39] of over 100 µM and a TGI [40] of over 100 µM. It also gave a TGI [41] of over 100 µM, a TGI [42] of over 100 µM and a TGI [43] of over 100 µM. The TGI [44] was over 100 µM, the TGI [45] was over 100 µM and the TGI [46] was over 100 µM. For the same compound, the TGI [47] was over 100 µM, the TGI [48] was over 100 µM and the TGI [49] was over 100 µM. For the same compound, the TGI [58] was over 100 µM, the TGI [50] was over 100 µM and the TGI [51] was over 100 µM. The TGI [52] was over 100 µM, the TGI [53] was over 100 µM and the TGI [54] was over 100 µM. For the same compound, the TGI [55] was over 100 µM.
In the case of `OC1[C@H]([C@H]2CCCC[C@@H]2O)CCC[C@@H]1[C@@H]1CCCC[C@H]1O` (some centres undefined), the TGI [1] is reported as over 100 µM, the TGI [2] is reported as over 100 µM and the TGI [3] is reported as over 100 µM. The TGI [4] was over 100 µM, the TGI [5] was over 100 µM and the TGI [6] was over 100 µM. It also gave a TGI [7] of over 100 µM, a TGI [8] of over 100 µM and a TGI [9] of over 100 µM. For the same compound, the TGI [10] was over 100 µM, the TGI [11] was over 100 µM and the TGI [12] was over 100 µM. It also gave a TGI [13] of over 100 µM, a TGI [14] of over 100 µM and a TGI [15] of over 100 µM. The TGI [16] was over 100 µM, the TGI [17] was over 100 µM and the TGI [18] was over 100 µM. The TGI [19] was over 100 µM, the TGI [20] was over 100 µM and the TGI [21] was over 100 µM. The TGI [22] was over 100 µM, the TGI [23] was over 100 µM and the TGI [24] was over 100 µM. It also gave a TGI [25] of over 100 µM, a TGI [26] of over 100 µM and a TGI [27] of over 100 µM. The TGI [28] was over 100 µM, the TGI [29] was over 100 µM and the TGI [30] was over 100 µM. It also gave a TGI [31] of over 100 µM, a TGI [32] of over 100 µM and a TGI [33] of over 100 µM. The TGI [34] was over 100 µM, the TGI [35] was over 100 µM and the TGI [36] was over 100 µM. For the same compound, the TGI [37] was over 100 µM, the TGI [57] was over 100 µM and the TGI [38] was over 100 µM. The TGI [39] was over 100 µM, the TGI [40] was over 100 µM and the TGI [41] was over 100 µM. For the same compound, the TGI [42] was over 100 µM, the TGI [43] was over 100 µM and the TGI [44] was over 100 µM. For the same compound, the TGI [45] was over 100 µM, the TGI [46] was over 100 µM and the TGI [47] was over 100 µM. It also gave a TGI [48] of over 100 µM, a TGI [49] of over 100 µM and a TGI [58] of over 100 µM. The TGI [50] was over 100 µM, the TGI [51] was over 100 µM and the TGI [52] was over 100 µM. It also gave a TGI [53] of over 100 µM, a TGI [54] of over 100 µM and a TGI [55] of over 100 µM. For the same compound, the TGI [56] was over 100 µM.

Source: PubChem BioAssay (NCI)
